What was measured:
RAW 264.7 macrophages [1] = test: Flow cytometric cytotoxicity (Zombie Aqua viability dye) in macrophages; assay type: cell-based; conditions: mouse, 70 %
Description: (§1) Macrophage cell culture. RAW 264.7 macrophages were purchased from ATCC and were cultured in T75 polystyrene tissue culture flasks (BD Biosciences) in Dulbecco's Modified Eagle Medium supplemented with 10% fetal bovine serum (FBS) (Gibco) and 1% penicillin/streptomycin antibiotics (Life Technologies). Cells were passaged by mechanical scraping after reaching 70-80% confluency.
(§2) Flow cytometric analysis of nanocarrier uptake and cytotoxicity. For each specified cell line, a total of 100,000 cells were seeded per well in 24-well polystyrene plates (Falcon). Cells were allowed to adhere overnight at 37° C., 4.0% CO2. For uptake studies involving endocytosis inhibitor pre-treatments, cells were incubated with either PBS (i.e., no inhibitor), cytochalasin D (CytD, 50 μM) phagocytosis inhibitor, or chlorpromazine (CPZ, 50 μM) clathrin-mediated endocytosis inhibitor prior to administering nanocarriers. Inhibitor concentrations were chosen based on published reports^36,53. Cells were treated with nanocarriers at the specified polymer concentration for 2 h. […] A total of 10,000 single cell events were recorded per sample and the resulting data were analyzed using the Cytobank analysis suite^54. The median fluorescence intensity (MFI) was normalized by subtracting the average MFI from untreated cells and was used to quantify the cellular uptake of nanocarriers.

RAW 264.7 macrophages [2] = test: Flow cytometric analysis of nanocarrier uptake by macrophages (MFI), with or without endocytosis inhibitors; assay type: cell-based; conditions: 50 μM CytD or 50 μM CPZ pre-treatment; nanocarriers at 1.0 mg/mL polymer
Description: as §1, §2

Compound | macrophage viability (RAW 264.7 macrophages [1]) | nanocarrier uptake after pre-treatment with endocytosis inhibitors (in words) (RAW 264.7 macrophages [2])
CCO [70% ethanol, ethanol] | below 30% | 
CN(C)CCCN1c2ccccc2Sc2ccc(Cl)cc21 [chlorpromazine] |  | decreased uptake of all structures
C=C1[C@@H](C)[C@H]2[C@H](Cc3ccccc3)NC(=O)[C@]23[C@H](OC(C)=O)/C=C/[C@@](C)(O)C(=O)[C@@H](C)C/C=C/[C@H]3[C@@H]1O [cytochalasin D] |  | decreased uptake of all structures
